Assay results reported in article PMC5838563, “Compounds producing an effective combinatorial regimen for disruption of HIV‐1 latency” (EMBO Molecular Medicine, 2017).

What was measured:
Assay type in all cases: cell-based
[1] = test system: HIV‐1 LTR chromatin (Jurkat^Tat LTR‐DsRed clone #11); assay: ChIP of histone H3K9 modifications at the HIV‐1 LTR
Procedure: To characterize induction of HIV‐1 expression caused by PH02 in more detail, we employed chromatin immunoprecipitation (ChIP) assays to examine changes at the LTR promoter using Jurkat^Tat LTR‐DsRed clone #11.
(§1) Figure 6 Effect of PH02 on histone modification at HIV‐1 LTR and global histone modification • Chromatin immunoprecipitation assays were performed using Jurkat^Tat LTR‐DsRed, clone 11. The cells were treated for 24 h with PH02 and/or PEP005, and ChIP was performed using antibodies against histone H3K9‐me3 (left panel) and histone H3K9‐ac (right panel). The results are presented relative to ChIP with antihistone H3 antibodies. The results are determined from three biological replicates (n = 3). Statistical significance, as determined by ratio paired t‐test, is indicated as follows: ***P < 0.0005; ****P < 0.00005. The exact P‐values are indicated in Appendix Table S1. • Western blot analysis was performed using Jurkat^Tat LTR‐DsRed, clone 11, to detect the expression of SP1, NF‐κB p65, IκBα, total H3K9‐me3, and H3K9ac. The cells were treated for 24 h with PH02 and/or PEP005. Source data are available online for this figure.
Jurkat^Tat LTR‐DsRed cells, clone #11, were treated with 3 μM PH02 and/or 10 nM PEP005, for 24 h, and the cells cross‐linked with 1% formaldehyde for 10 min at RT. The cells were resuspended in cold NP‐40 lysis buffer (0.5% NP‐40, 10 mM Tris–HCl pH 7.8, 3 mM MgCl2) containing freshly added protease inhibitor cocktail (PIC, Sigma‐Aldrich) and spun to collect nuclei. The nuclei were sonicated in buffer containing 10 mM Tris–HCl (pH 7.8), 10 mM EDTA, and 0.5% SDS to obtain DNA fragments of 200–2,000 bp using a Bioruptor sonicator (Diagenode). The chromatin fractions were precleared with protein A/G agarose beads (Millipore) and immune‐precipitated with anti‐H3K9‐me3, anti‐H3K9‐ac, or anti‐H3 antibodies (Abcam) according to the manufacturer's instructions. Cross‐links were reversed by incubating the samples at 68°C for 2 h, and DNA was purified using QIAquick PCR columns and assayed by qPCR using primers specific to the HIV‐1 LTR core promoter, AGTGGCGAGCCCTCAGAT, and […]. Results are presented as normalized relative to that for histone H3 immunoprecipitates.

[2] = test system: latent HIV‐1 provirus in CD4^+ T cells from aviremic HIV‐infected patients; assay: Intracellular HIV‐1 mRNA in CD4+ T cells of aviremic patients
Procedure: However, 1 nM PEP005 in combination with 1 μM PH02 produced a significant response that was double that produced by 1 μM PH02 on its own (Fig 10A). We confirmed this effect using a quantitative viral outgrowth assay (qVOA) with pools of CD4^+ T cells isolated from HIV‐1‐infected patient samples (Fig EV5, Appendix Table S5). […] We conclude that this combination of treatments may represent a promising candidate therapy to target persistent latent viral infection.
Figure 10 Effect of PH02 and PEP005 on expression of HIV provirus in latently infected cells from patients • Expression of intracellular HIV‐1 mRNA was determined from pools of CD4^+ T cells from aviremic HIV‐infected patients (n = 3, Appendix Table S4) following 24‐h treatment as indicated. Results are shown as fold induction relative to untreated controls. • Quantitative viral outgrowth assays (qVOA) were used to measure reactivation of HIV‐1 provirus from latency in pools of cells from patients. […] Data information: Statistical significance was determined by one‐way ANOVA and indicated as: *P < 0.05; **P < 0.005; ***P < 0.0005; ****P < 0.00005. […]
HIV‐1 RNA was measured from 1 × 10^6 resting CD4^+ T lymphocytes treated with 30 μM of each compound. […] RNA copy number was calculated using a standard curve generated from titrated infections with RGH‐PGK virus (Dahabieh et al, 2013). […]

[3] = test system: SP1, NF‐κB p65, IκBα, total H3K9‐me3 and H3K9ac in Jurkat^Tat reporter cells; assay: Western blot of SP1, NF‐κB p65, IκBα and global H3K9 modifications
Procedure: as §1
Figure EV3 Effect of PH compounds on SP1, NF‐κB p65, and IκBα expression Jurkat^Tat LTR‐Luciferase cells were treated with a single concentration (3 μM) of each PH compound for the indicated time points. Whole‐cell protein extract was separated by SDS–PAGE, transferred to nitrocellulose membrane, and blotted with antibodies against SP1, NF‐κB p65, and IκBα. GAPDH was used as the loading control. Source data are available online for this figure.
5 × 10^6 luciferase reporter cells/Jurkat^Tat LTR‐DsRed, clone 11, were treated with the indicated concentration of the compounds. After treatment, the cells were lysed in RIPA buffer (50 mM Tris–HCl, pH 8.0, 150 mM NaCl, 1% NP‐40, 0.5% sodium deoxycholate, 0.1% SDS), supplemented with 1× protease inhibitor cocktail and 1 mM DTT, to collect the whole‐cell protein extract, which was further quantified using Bradford assay. A 30 μg equivalent of the protein extract was mixed with the 5× SDS–PAGE sample buffer and boiled for 5 min, and then, it was separated using 12% SDS–PAGE gel and transferred to a nitrocellulose membrane. […]

[4] = single treatment, 3 μM PH02 or 10 nM PEP005, 24 h
[5] = Jurkat^Tat LTR‐DsRed clone 11, 24 h

SMILES	H3K9 acetylation on the LTR [1, 4]	H3K9‐3me at the LTR relative to total histone H3 [1, 4]	induction of viral RNA ([2]; 1 nM PEP005 alone, 24 h)	IκBα level ([3]; Jurkat^Tat LTR‐DsRed clone 11, 24‐h treatment, alone or with PH02)	H3K9 acetylation on the LTR ([1]; 3 μM PH02 + 10 nM PEP005, 24 h)	H3K9‐3me at the LTR relative to total histone H3 ([1]; 3 μM PH02 + 10 nM PEP005, 24 h, versus either drug separately)	response of combination relative to 1 μM PH02 on its own ([2]; 1 μM PH02 + 1 nM PEP005, 24 h)	expression of NF‐κB p65 and SP1 [3, 5]	global acetylation or methylation of lysine 9 on H3 [3, 5]
C/C=C(/C)C(=O)O[C@H]1C(C)=C[C@]23C(=O)[C@@H](C=C(CO)[C@@H](O)[C@]12O)[C@H]1[C@@H](C[C@H]3C)C1(C)C [PEP005, ingenol‐3‐angelate, reference compound]	accumulation of H3K9 acetylation	a similar effect was observed	did not cause induction of viral RNA	causes loss of IκBα	–	–	–	–	–
CC(=O)Oc1ccccc1N(C=C1Sc2ccccc2C1=O)C(C)=O [PH02, 2‐{acetyl[(3‐oxo‐1‐benzothien‐2(3H)‐ylidene)methyl]amino}phenyl acetate]	accumulation of H3K9 acetylation	significantly reduced	–	–	significant elevation	equivalent reduction	double	mostly unaffected	do not observe a significant effect
